Data published in patent US7625889B2, “Substituted bis aryl and heteroaryl compounds as selective 5HT2A antagonists” (Aventis Pharmaceuticals Inc., priority 2005, dated 2009).
Structures can show the parent of a compound that is named as a salt.

Biological target: T1, human 5HT2A receptor (Homo sapiens, UniProt P28223)
T1 construct: expressed in transfected cells
Experiment: Receptor Binding Assay, 5HT2A ([3H]N-methyl spiperone)
Conditions: BHK cells expressing human 5HT2A receptor, 2.5 nM [3H]N-methyl spiperone, 37° C.
Description: Cell Culture: BHK cells stably expressing the human 5HT2A receptor were maintained in Dulbecco's Modified Eagle's Medium supplemented with […] Geneticin, 1% Sodium Pyruvate, 1% Pen-Strep and 10% Fetal Calf Serum, and treated with 5 mM sodium butyrate for 24 h to increase receptor expression before harvesting. Cells were harvested by mechanical scraping, washed with Phosphate Buffered Saline, and stored at −80° C. in 10% DMSO in 1 mg/mil aliquots until used. Protein determination was made according to Lowry.
Receptor Binding Assays: The 5HT2A and D2L assays were conducted at 37° C. in a Tris buffer containing salts (50 mM Tris Buffer, pH 7.7; 120 mM NaCl; 5 mM KCl; 2 mM CaCl2; 1 mM MgCl2). Cell membranes (previously prepared and frozen) were rapidly thawed. Membranes were diluted to an appropriate concentration (to produce 100 μg protein/assay point for 5HT2A, and 58 μg protein/assay point for D2L) in Tris buffer and homogenized. Assays were conducted on 96-well plates, using 2.5 and 1 nM [^3H]N-methyl spiperone as radioligand for 5HT2A and D2L assays, respectively. Plates were incubated at 37° C. in a shaking water bath for 30 and 60 min, for 5HT2A and D2L, respectively. Nonspecific binding was defined using 100 μM methylsergide and eticlopride, for 5HT2A and D2L, respectively.
Assays were terminated by rapid filtration through Millipore MAFB or MAFC (5HT2C) filter plates (presoaked in 50 mM Tris HCl, pH 7.7, with 0.1% Brij) using a Millipore Cell Harvester. The filter plates were then washed with ice-cold 50 mM Tris buffer, pH 7.7, and allowed to dry overnight. 50 μl of Microscint scintillation cocktail were added and the plates were counted in a Packard Topcount scintillation counter.
IC50 and Ki calculations were performed using nonlinear regression one-site competition analysis (GraphPad, Prism), with top and bottom limits held constant at 0% and 100% inhibition, respectively. The percent inhibition at each drug concentration was the average of duplicate determinations. Except where indicated, each determination was performed 2 to 5 times.

T1 sequence (P28223 whole entry): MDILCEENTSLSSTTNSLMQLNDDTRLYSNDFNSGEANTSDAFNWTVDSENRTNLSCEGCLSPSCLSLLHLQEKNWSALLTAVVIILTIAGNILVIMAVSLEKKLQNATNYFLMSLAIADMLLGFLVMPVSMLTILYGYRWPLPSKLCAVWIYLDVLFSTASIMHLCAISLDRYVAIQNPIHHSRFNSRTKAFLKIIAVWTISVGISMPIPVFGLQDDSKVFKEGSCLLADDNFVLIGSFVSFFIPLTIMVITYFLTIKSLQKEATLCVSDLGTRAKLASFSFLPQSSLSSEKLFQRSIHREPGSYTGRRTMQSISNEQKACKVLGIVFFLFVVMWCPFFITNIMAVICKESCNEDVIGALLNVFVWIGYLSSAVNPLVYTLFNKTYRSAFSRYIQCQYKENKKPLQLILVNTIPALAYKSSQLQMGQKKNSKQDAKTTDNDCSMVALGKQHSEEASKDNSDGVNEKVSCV

| SMILES | Ki |
| --- | --- |
| CN(C)CCN(Cc1ccc(F)cc1)Cc1cncc(-c2ccc3[nH]ncc3c2)c1 [Example 49] | 0.4 nM |
| CN1CCC(N(Cc2cc(-c3ccc4[nH]ccc4c3)ccc2F)C(=O)c2ccnnc2)CC1 [Example 107, Pyridazine-4-carboxylic acid [2-fluoro-5-(1H-indol-5-yl)-benzyl]-(1-methyl-piperidin-4-yl)-amide] | 85 nM |
| CN(C)CCN(Cc1cc(-c2ccc3[nH]ccc3c2)ccc1F)C(=O)c1cccs1 [Example 33] | 1.19 nM |
| O=C(c1ccc(F)cc1)N(Cc1cc(-c2ccc3[nH]c(=O)oc3c2)ccc1F)C1CN2CCC1CC2 (stereo not shown) [Example 78] | 0.76 nM |
| CN1CCN(Cc2cccc(-c3ccc4[nH]c(=O)oc4c3)c2)CC1 [Example 8] | 35.4 nM |
| CN1CCN(Cc2cc(-c3ccc4[nH]c(=O)oc4c3)ccc2F)[C@@H](c2ccc(F)cc2)C1 [Example 97, 6-{4-Fluoro-3-[2S-(4-fluoro-phenyl)-4-methyl-piperazin-1-ylmethyl]-phenyl}-3H-benzooxazol-2-one] | 0.77 nM |
| O=C(c1ccc(F)cc1F)N(CCN1CCCC1)Cc1cc(-c2ccc3[nH]nnc3c2)ccc1F [Example 57] | 0.71 nM |
| O=C(c1ccc(F)cc1)N(CCN1CCCC1)Cc1ccc(-c2ccc3[nH]ccc3c2)s1 [Example 75] | 2.14 nM |
| CN1CCN(Cc2ccc(-c3ccc4[nH]c(=O)oc4c3)o2)[C@@H](c2ccc(F)cc2)C1 [Example 14] | 1.4 nM |
| CN1CCN(Cc2cccc(-c3ccc4[nH]ccc4c3)c2)CC1 [Example 120, 5-[3-(4-Methyl-piperazin-1-ylmethyl)-phenyl]-1H-indole] | 65 nM |
| CN1CCN(Cc2cc(-c3ccc4[nH]ccc4c3)ccc2F)C(c2cccnc2)C1 (stereo not shown) [Example 10] | 13.8 nM |
| O=C(c1ccc(F)cc1)N(Cc1cc(-c2ccc3[nH]ccc3c2)ccc1F)CC12CCN(CC1)CC2 [Example 38] | 14.4 nM |
| CN(C)CCN(Cc1ccccc1)Cc1cccc(-c2ccc3[nH]c(=O)[nH]c3c2)c1 [Example 5] | 218 nM |
| CN1CCC(N(Cc2cc(-c3ccc4[nH]ccc4c3)ccc2F)C(=O)c2ncccn2)CC1 [Example 108, Pyrimidine-2-carboxylic acid [2-fluoro-5-(1H-indol-5-yl)-benzyl]-(1-methyl-piperidin-4-yl)-amide] | 16 nM |
| CN1CCC(N(Cc2cccc(-c3ccc4[nH]ccc4c3)c2)C(=O)c2cccs2)CC1 [Example 28] | 0.7 nM |
| CCN1CCCC1CN(Cc1cc(-c2ccc3[nH]c(=O)oc3c2)ccc1F)C(=O)c1ccc(F)cc1 (stereo not shown) [Example 25] | 0.6 nM |
| CCN1CCC[C@H]1CN(Cc1cc(-c2ccc3[nH]nnc3c2)ccc1F)C(=O)c1ccc(F)cc1 [Example 53, N-[5-(1H-Benzotriazol-5-yl)-2-fluoro-benzyl]-N-(1-ethyl-pyrrolidin-2S-ylmethyl)-4-fluoro-benzamide] | 2.13 nM |
| Fc1ccc(CN(Cc2cc(-c3ccc4[nH]ncc4c3)ccc2F)C[C@@H]2CCCN2)cc1 [Example 81] | 2 nM |
| CN1CCN(Cc2cc(-c3ccc4[nH]ccc4c3)ccc2F)C(c2ccco2)C1 (stereo not shown) [Example 93, 5-[4-Fluoro-3-(2-furan-2-yl-4-methyl-piperazin-1-ylmethyl)-phenyl]-1H-indole] | 0.6 nM |
| CN1CCCN(Cc2cccc(-c3ccc4[nH]ccc4c3)c2)CC1 [Example 121, 5-[3-(4-Methyl-[1,4]diazepan-1-ylmethyl)-phenyl]-1H-indole] | 82 nM |
| CN(C)CCN(Cc1ccccc1)Cc1cccc(-c2cnc3c(c2)OCC(=O)N3)c1 [Example 7] | 210 nM |
| Fc1ccc(CN(Cc2cc(-c3ccc4[nH]ncc4c3)ccc2F)C2CCNCC2)cc1 [Example 82] | 0.51 nM |
| CN1CCCC(N(Cc2cc(-c3ccc4[nH]ncc4c3)ccc2F)C(=O)c2ccc(F)cc2)C1 (stereo not shown) [Example 61] | 0.7 nM |
| Fc1ccc([C@H]2CNCCN2Cc2cc(-c3ccc4[nH]ccc4c3)co2)cc1 [Example 115, 5-{5-[2S-(4-Fluoro-phenyl)-piperazin-1-ylmethyl]-furan-3-yl}-1H-indole] | 2.88 nM |

Second part, the compound after the results:

| Ki | SMILES |
| --- | --- |
| 0.9 nM | Fc1ccc([C@H]2CNCCN2Cc2cc(-c3ccc4[nH]ccc4c3)ccc2F)cc1 [Example 174, 5-{4-Fluoro-3-[2S-(4-fluoro-phenyl)-piperazin-1-ylmethyl]-phenyl}-1H-indole acetate] |
| 1 nM | CN1CCC(N(Cc2ccc(F)cc2)Cc2cc(-c3ccc4[nH]c(=O)oc4c3)ccc2F)CC1 [Example 89, 6-(4-Fluoro-3-{[(4-fluoro-benzyl)-(1-methyl-piperidin-4-yl)-amino]-methyl}-phenyl)-3H-benzooxazol-2-one] |
| 1.1 nM | CN1CCC(N(Cc2ccc(F)cc2)Cc2cc(-c3ccc4[nH]c(=O)oc4c3)co2)CC1 [Example 118, 6-(5-{[(4-Fluoro-benzyl)-(1-methyl-piperidin-4-yl)-amino]-methyl}-furan-3-yl)-3H-benzooxazol-2-one] |
| 4.1 nM | CN(C)CCN(Cc1cccc(-c2ccc3[nH]c(=O)sc3c2)c1)C(=O)c1ccc(Cl)cc1 [Example 37] |
| 3.3 nM | CN1CCN(Cc2cc(-c3ccc4[nH]ccc4c3)ccc2F)C(c2ccccn2)C1 (stereo not shown) [Example 13] |
| 10.8 nM | CN(C)CCN(Cc1ccccc1)Cc1cccc(-c2ccc3[nH]ccc3c2)c1 [Example 1, N-Benzyl-N-[3-(1H-indol-5-yl)-benzyl]-N′,N′-dimethyl-ethane-1,2-diamine] |
| 4.79 nM | O=c1[nH]c2ccc(-c3coc(CN4CCNC[C@@H]4c4ccc(F)cc4)c3)cc2o1 [Example 117, 6-{5-[2S-(4-Fluoro-phenyl)-piperazin-1-ylmethyl]-furan-3-yl}-3H-benzooxazol-2-one acetate] |
| 0.77 nM | CN(C)CCN(Cc1cccc(-c2ccc3[nH]c(=O)oc3c2)c1)C(=O)c1ccc(Cl)cc1 [Example 30] |
| 1.79 nM | Fc1ccc([C@H]2CNCCN2Cc2cc(-c3ccc4[nH]ncc4c3)co2)cc1 [Example 116, 5-{5-[2S-(4-Fluoro-phenyl)-piperazin-1-ylmethyl]furan-3-yl}-1H-indazole] |
| 0.7 nM | CN1CCC(N(Cc2cc(-c3ccc4[nH]ccc4c3)ccc2F)C(=O)c2cccs2)CC1 [Example 29] |
| 4.74 nM | CN1CCC(N(Cc2cc(-c3ccc4[nH]ccc4c3)co2)C(=O)c2ccc(F)cc2)CC1 [Example 76] |
| 0.82 nM | CNCCN(Cc1ccc(F)cc1)Cc1cc(-c2ccc3[nH]ncc3c2)ccc1F [Example 83, N-(4-Fluoro-benzyl)-N-[2-fluoro-5-(1H-indazol-5-yl)-benzyl]-N′-methyl-ethane-1,2-diamine] |
| 1.35 nM | CN1CCC(N(Cc2cc(-c3ccc4[nH]nnc4c3)ccc2F)C(=O)c2ccc(F)cc2)CC1 [Example 69, N-[5-(1H-Benzotriazol-5-yl)-2-fluoro-benzyl]-N-(1-methyl-piperidin-4-yl)-4-fluoro-benzamide] |
| 0.75 nM | CN1CC[C@@H](N(Cc2cc(-c3ccc4[nH]ncc4c3)ccc2F)C(=O)c2ccc(F)cc2)C1 [Example 62] |
| 7.2 nM | CN(C)CCCN(Cc1ccccc1)Cc1cccc(-c2ccc3[nH]nnc3c2)c1 [Example 17, N-[3-(1H-Benzotriazol-5-yl)-benzyl]-N-benzyl-N′,N′-dimethyl-propane-1,3-diamine] |
| 9.2 nM | N#Cc1c[nH]c2ccc(-c3ccc(F)c(CN4CCNC[C@@H]4c4ccc(F)cc4)c3)cc12 [Example 51] |
| 3.1 nM | CN1CCN(Cc2cc(-c3ccc4[nH]ccc4n3)ccc2F)[C@@H](c2ccc(F)cc2)C1 [Example 52] |
| 0.58 nM | CN1CC[C@H](N(Cc2cc(-c3ccc4[nH]ncc4c3)ccc2F)C(=O)c2ccc(F)cc2)C1 [Example 63] |
| 0.56 nM | CN(C)CCN(Cc1cccc(-c2ccc3[nH]c(=O)oc3c2)c1)C(=O)c1ccccc1 [Example 24] |
| 14.9 nM | Fc1ccc(CN(Cc2cc(-c3ccc4[nH]nnc4c3)ccc2F)C[C@H]2CCCN2)cc1 [Example 80, [5-(1H-Benzothiazol-5-yl)-2-fluoro-benzyl]-(4-fluoro-benzyl)-pyrrolidin-2R-ylmethyl-amine trihydrochloride] |
| 2.8 nM | CN(C)CCN(Cc1cc(-c2ccc3[nH]cc(C#N)c3c2)ccc1F)C(=O)c1ccc(F)cc1 [Example 35] |
| 0.89 nM | CN1CCC(N(Cc2cc(-c3ccc4[nH]c(=O)oc4c3)ccc2F)C(=O)c2ccc(F)cc2)CC1 [Example 59] |
| 1.68 nM | CNCCN(Cc1ccc(F)cc1)Cc1cc(-c2ccc3[nH]nnc3c2)ccc1F [Example 86, N-[5-(1H-Benzotriazol-5-yl)-2-fluoro-benzyl]-N-(4-fluoro-benzyl)-N′-methyl-ethane-1,2-diamine] |
| 4.1 nM | CN(C)CCCN(Cc1cccc(-c2ccc3[nH]c(=O)sc3c2)c1)C(=O)c1ccccc1 [Example 36] |
| 16.2 nM | CN1CCN(Cc2cc(-c3ccc4[nH]c(=O)oc4c3)co2)[C@H](c2ccc(F)cc2)C1 [Example 11] |
